Measured values: patent US9023789B2, “Amylin analogs and pharmaceutical compositions thereof” (Novo Nordisk A/S, priority 2012, dated 2015)
Read-outs that look alike come from different tables or passages of the source. Numbered stars: 1 amine (or outer) side, 2 acyl side, 3 side chain; on linkers, the order of the positions; unused ones are H or OH. Bridge positions count the residues as written; N and C are the ends. Peptide text beside a SMILES is read from it. * marks the point of attachment. C20 diacid = O=C(O)CCCCCCCCCCCCCCCCCCC(=O)*; γGlu = O=C(O)[C@H](CCC(=O)[*:2])N[*:1]

What was measured:
[1] = ASSAY (III) ThT fibrillation assay for physical stability; assay type: physicochemical
Source text: Assay (III)—ThT Fibrillation Assays for the Assessment of Physical Stability of Protein Formulations Low physical stability of a polypeptide may lead to amyloid fibril formation, which is observed as well-ordered, thread-like macromolecular structures in the sample eventually resulting in gel formation. This has traditionally been measured by visual inspection of the sample. However, that kind of measurement is very subjective and depending on the observer. Therefore, the application of a small molecule indicator probe is much more advantageous. Thioflavin T (ThT) is such a probe and has a distinct fluorescence signature when binding to fibrils [Naiki et al. (1989) Anal. […] LeVine (1999) Methods. Enzymol. […], 274-284]. The time course for fibril formation can be described by a sigmoidal curve with the following expression [Nielsen et al. (2001) Biochemistry 40, 6036-6046]; […] Here, F is the ThT fluorescence at the time t. The constant t0 is the time needed to reach 50% of maximum fluorescence. […] Few of those intermediates nucleate to form a template onto which further intermediates may assembly and the fibrillation proceeds. The lag-time corresponds to the interval in which the critical mass of nucleus is built up and the apparent rate constant is the rate with which the fibril itself is formed. Sample Preparation Samples were prepared freshly before each assay. Each sample composition is described in each example. The pH of the sample was adjusted to the desired value using appropriate amounts of concentrated NaOH and HClO4 or HCl. Thioflavin T was added to the samples from a stock solution in H2O to a final concentration of 1 μM. Sample aliquots of 200 μl were placed in a 96 well microtiter plate (Packard OptiPlate™96, white polystyrene). Usually, four or eight replica of each sample (corresponding to one test condition) were placed in one column of wells. The plate was sealed with Scotch Pad (Qiagen). Incubation and Fluorescence Measurement Incubation at given temperature, shaking and measurement of the ThT fluorescence emission were done in a Fluoroskan Ascent FL fluorescence platereader or Varioskan platereader (Thermo Labsystems). The temperature was adjusted to 37° C. The orbital shaking was adjusted to 960 rpm with an amplitude of 1 mm in all the presented data. Fluorescence measurement was done using excitation through a 444 nm filter and measurement of emission through a 485 nm filter. Each run was initiated by incubating the plate at the assay temperature for 10 min. The plate was measured every 20 minutes for a desired period of time. Between each measurement, the plate was shaken and heated as described. Data Handling The measurement points were saved in Microsoft Excel format for further processing and curve drawing and fitting was performed using GraphPad Prism. The background emission from ThT in the absence of fibrils was negligible. The data points are typically a mean of four or eight samples and shown with standard deviation error bars. Only data obtained in the same experiment (i.e. samples on the same plate) are presented in the same graph ensuring a relative measure of fibrillation between experiments. The data set may be fitted to Eq. […] However, since full sigmodial curves in this case are not always achieved during the measurement time, the degree of fibrillation is expressed as ThT fluorescence tabulated as the mean of the samples and shown with the standard deviation at various time points. Measurement of Initial and Final Concentrations The polypeptide concentration in each of the tested formulations were measured both before application in the ThT fibrillation assay (“Initial”) and after completion of the ThT fibrillation (“After ThT assay”). Concentrations were determined by reverse HPLC methods using a pramlintide standard as a reference. Before measurement after completion 150 μl was collected from each of the replica and transferred to an Eppendorf tube. These were centrifuged at 30000 G for 40 mins. […]

[2] = ASSAY (IV) determination of solubility; assay type: physicochemical
Description: Assay (IV)—Determination of Solubility
The polypeptide was dissolved in water at −500 nmol/ml and mixed 1:1 with a series of buffers (100 mM glycylglycine pH 3.0, 100 mM glycylglycine pH 4.0, 100 mM glycylglycine pH 5.0, 100 mM bistrispropane pH 6.0, 100 mM bistrispropane pH 6.5, 100 mM bistrispropane pH 7.0, 100 mM bistrispropane pH 7.5, 100 mM bistrispropane pH 8.0). After 18 hours at room temperature the samples were centrifuged and the polypeptide concentration determined by UPLC.

[3] = molecular target: T1, human amylin receptor (membranes from Amylin 3(a)/CRE-luc cells) (Homo sapiens, UniProt O60896+P30988); experiment: ASSAY (V) binding to the human amylin receptor (SPA, 125I-rat amylin);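 also: competition binding of cell membranes (35 ng/µL) mixed with SPA beads in 384-well plates at 40 µL total volume, read by scintillation counting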
T1 construct: expressed in transfected cells
T1 sequence (P30988 25-474): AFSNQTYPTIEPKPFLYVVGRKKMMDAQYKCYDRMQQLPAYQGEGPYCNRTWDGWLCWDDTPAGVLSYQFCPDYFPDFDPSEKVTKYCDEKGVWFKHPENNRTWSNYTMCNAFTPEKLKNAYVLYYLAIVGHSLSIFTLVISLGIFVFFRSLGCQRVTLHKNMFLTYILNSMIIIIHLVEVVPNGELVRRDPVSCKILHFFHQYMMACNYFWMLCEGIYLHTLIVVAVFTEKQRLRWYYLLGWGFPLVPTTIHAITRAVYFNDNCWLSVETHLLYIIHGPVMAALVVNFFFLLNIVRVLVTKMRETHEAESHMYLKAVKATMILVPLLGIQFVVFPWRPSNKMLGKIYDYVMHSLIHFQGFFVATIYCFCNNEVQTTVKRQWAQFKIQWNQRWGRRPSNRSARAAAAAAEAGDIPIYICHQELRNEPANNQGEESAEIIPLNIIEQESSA
T1 sequence (O60896 24-148 partner): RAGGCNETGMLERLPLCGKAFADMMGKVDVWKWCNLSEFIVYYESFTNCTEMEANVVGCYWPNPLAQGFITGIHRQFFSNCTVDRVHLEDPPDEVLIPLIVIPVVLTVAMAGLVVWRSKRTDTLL

[4] = molecular target: T2, human amylin 3(a) receptor (human calcitonin receptor + RAMP-3) in BHK570 cells (Homo sapiens, UniProt O60896+P30988); experiment: ASSAY (II)a functional assay, human amylin receptor (CRE luciferase); assay type: cell-based
T2 construct: expressed in transfected cells
Source text: 1. Luciferase Assay Outline
Activation of calcitonin and amylin (coexpression of calcitonin receptor and receptor activity modifying proteins (RAMP)) receptors lead to increased intracellular concentrations of cAMP. Consequently, transcription is activated by promoters containing multiple copies of the cAMP response element (CRE). It is thus possible to measure amylin activity by the use of a CRE luciferase reporter gene introduced into BHK cells also expressing calcitonin or amylin receptors.
2. Construction of Calcitonin (a)- and Amylin 3(a)-Receptor/CRE-Luc Cell Line.
The cell line was further transfected with RAMP-3, using standard methods. This turns the calcitonin receptor into an amylin 3(a) receptor. Methotrexate, Neomycin, and Hygromycin are selection markers for luciferase, the calcitonin receptor, and RAMP-3, respectively.
To perform activity assays, BHK calcitonin (a) receptor- or amylin 3(a)-receptor/CRE-luc cells were seeded in white 96 well culture plates at a density of about 20.000 cells/well. […] After incubation overnight at 37° C. and 5% CO2, the growth medium was replaced by 50 μl/well assay medium (DMEM (without phenol red), Glutamax™, 10% FBS, and 10 mM Hepes, pH 7.4). Further, 50 μl/well of standard or sample in assay buffer were added. After 3 hours incubation at 37° C. and 5% CO2, the assay medium with standard or sample were removed and replaced by 100 μl/well PBS. Further, 100 μl/well LucLite™ was added. The plates were sealed and incubated at room temperature for 30 minutes. Finally, luminescence was measured on a TopCounter (Packard) in SPC (single photon counting) mode.

[5] = molecular target: T3, rat calcitonin receptor (Rattus norvegicus, UniProt P32214); experiment: ASSAY (VIII) binding to the rat calcitonin receptor; conditions: Table 7, read-out: rCTR bind IC50
T3 construct: expressed in transfected cells; host or cells: BHK tk'ts 13 (transient, FuGENE 6), membranes
T3 sequence (P32214 25-479 isoform P32214-2 limits assumed): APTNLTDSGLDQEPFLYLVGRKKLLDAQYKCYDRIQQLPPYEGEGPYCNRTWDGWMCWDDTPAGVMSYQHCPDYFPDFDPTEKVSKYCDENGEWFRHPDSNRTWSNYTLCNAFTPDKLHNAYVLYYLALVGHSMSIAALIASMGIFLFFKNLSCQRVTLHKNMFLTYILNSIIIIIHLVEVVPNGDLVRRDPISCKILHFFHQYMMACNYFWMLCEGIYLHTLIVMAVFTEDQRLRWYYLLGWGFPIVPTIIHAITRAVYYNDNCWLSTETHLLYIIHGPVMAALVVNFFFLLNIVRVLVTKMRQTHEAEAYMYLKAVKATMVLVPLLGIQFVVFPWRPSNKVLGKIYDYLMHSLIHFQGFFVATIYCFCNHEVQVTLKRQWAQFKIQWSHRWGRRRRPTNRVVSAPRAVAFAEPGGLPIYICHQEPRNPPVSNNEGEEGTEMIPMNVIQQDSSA
Description: Assay (VIII)—Determination of Binding to the Rat Calcitonin Receptor
The BHK tk′ts 13 cells were transiently transfected with rat calcitonin receptor using FuGENE® 6 (Roche), according to the manufacturer's recommendations. Cells were grown in DMEM with 10% FBS and 1% Pen/Strep. Approximately 48 hours after transfection, the cells were harvested and membranes were prepared.

[6] = bistrispropane buffer, pH 6.5, read-out: Solubility pH 6.5 Concentration
[7] = bistrispropane buffer, pH 7.5, read-out: Solubility pH 7.5 Concentration
[8] = bistrispropane buffer, pH 6.0, read-out: Solubility pH 6.0 Concentration
[9] = bistrispropane buffer, pH 7.0, read-out: Solubility pH 7.0 Concentration
[10] = bistrispropane buffer, pH 8.0, read-out: Solubility pH 8.0 Concentration
[11] = glycylglycine buffer, pH 3.0, read-out: Solubility pH 3.0 Concentration
[12] = glycylglycine buffer, pH 4.0, read-out: Solubility pH 4.0 Concentration
[13] = glycylglycine buffer, pH 5.0, read-out: Solubility pH 5.0 Concentration

CC[C@H](C)[C@H](NC(=O)[C@H](C)NC(=O)CNC(=O)[C@H](Cc1ccccc1)NC(=O)[C@H](CC(N)=O)NC(=O)[C@@H]1CCCN1C(=O)[C@H](CO)NC(=O)[C@H](CO)NC(=O)[C@H](Cc1c[nH]cn1)NC(=O)[C@H](CCCNC(=N)N)NC(=O)[C@H](CC(C)C)NC(=O)[C@H](Cc1ccccc1)NC(=O)[C@H](CCC(=O)O)NC(=O)[C@H](C)NC(=O)[C@H](CC(C)C)NC(=O)[C@H](CCCNC(=N)N)NC(=O)[C@H](CCC(N)=O)NC(=O)[C@@H](NC(=O)[C@H](C)NC(=O)[C@@H]1CSSC[C@H](NC(=O)[C@H](CCCCN)NC(=O)CC[C@H](NC(=O)CC[C@H](NC(=O)CCCCCCCCCCCCCCCCCCC(=O)O)C(=O)O)C(=O)O)C(=O)N[C@@H](CC(N)=O)C(=O)N[C@@H]([C@@H](C)O)C(=O)N[C@@H](C)C(=O)N[C@@H]([C@@H](C)O)C(=O)N1)[C@@H](C)O)C(=O)N1CCC[C@H]1C(=O)N[C@@H](CO)C(=O)N[C@@H](CO)C(=O)N[C@H](C(=O)N[C@@H](CC(N)=O)C(=O)N[C@H](C(=O)NCC(=O)N[C@@H](CO)C(=O)N[C@@H](CC(N)=O)C(=O)N[C@H](C(=O)N1CCC[C@H]1C(N)=O)[C@@H](C)O)C(C)C)[C@@H](C)O [Example 14] ({C20 diacid-γGlu-γGlu}-KCNTATCATQRLAEFLRHSSPNFGAIPSSTNVGSNTP-NH2; disulfide 2-7)
ThT pH 4.0 lag time (h) [1]: 45 h | solubility at 18 h [2, 6]: ≥ 200 µM | solubility at 18 h [2, 7]: ≥ 200 µM | solubility at 18 h [2, 8]: ≥ 200 µM | solubility at 18 h [2, 9]: ≥ 200 µM | solubility at 18 h [2, 10]: ≥ 200 µM | solubility at 18 h [2, 11]: ≥ 200 µM | solubility at 18 h [2, 12]: ≥ 200 µM | solubility at 18 h [2, 13]: ≥ 200 µM | Ratio hCT/hAmylin binding ([3]; Table 5, selectivity, hCTR bind IC50 / hAmylin-R bind IC50): 2.2 | Ratio hCT/hAmylin binding ([3]; Table 7, human binding selectivity, included for comparison): 2.2 | Ratio hCT/hAmylin funct. ([4]; hCTR funct. EC50 / hAmylin-R funct. EC50): 1.6 | Ratio hCT/hAmylin funct. ([4]; hCTR funct. EC50 divided by hAmylin-R funct. EC50): 1.6 | Ratio hCT/hAmylin funct. ([4]; hCTR funct. EC50 over hAmylin-R funct. EC50): 1.6 | Ratio hCT/hAmylin funct. ([4]; human functional selectivity: hCTR funct. EC50 / hAmylin-R funct. EC50): 1.6

CC[C@H](C)[C@H](NC(=O)[C@H](C)NC(=O)CNC(=O)[C@H](Cc1ccccc1)NC(=O)[C@H](CC(N)=O)NC(=O)[C@@H]1CCCN1C(=O)[C@H](CO)NC(=O)[C@H](CO)NC(=O)[C@H](Cc1c[nH]cn1)NC(=O)[C@H](CCCNC(=N)N)NC(=O)[C@H](CC(C)C)NC(=O)[C@H](Cc1ccccc1)NC(=O)[C@H](CC(=O)O)NC(=O)[C@H](C)NC(=O)[C@H](CC(C)C)NC(=O)[C@H](CCCNC(=N)N)NC(=O)[C@H](CCC(N)=O)NC(=O)[C@@H](NC(=O)[C@H](C)NC(=O)[C@@H]1CSSC[C@H](NC(=O)[C@@H](N)CCCCN)C(=O)N[C@@H](CC(N)=O)C(=O)N[C@@H]([C@@H](C)O)C(=O)N[C@@H](C)C(=O)N[C@@H]([C@@H](C)O)C(=O)N1)[C@@H](C)O)C(=O)N1CCC[C@H]1C(=O)N[C@@H](CO)C(=O)N[C@@H](CO)C(=O)N[C@H](C(=O)N[C@@H](CC(N)=O)C(=O)N[C@H](C(=O)NCC(=O)N[C@@H](CO)C(=O)N[C@@H](CCCNC(=N)N)C(=O)N[C@H](C(=O)N[C@@H](Cc1ccc(O)cc1)C(N)=O)[C@@H](C)O)C(C)C)[C@@H](C)O [Example 132]
IC50 [5]: 0.0309 µM | solubility at 18 h [2, 6]: ≥ 200 µM | solubility at 18 h [2, 7]: ≥ 200 µM | solubility at 18 h [2, 8]: ≥ 200 µM | solubility at 18 h [2, 9]: ≥ 200 µM | solubility at 18 h [2, 10]: ≥ 200 µM | solubility at 18 h [2, 11]: ≥ 200 µM | solubility at 18 h [2, 12]: ≥ 200 µM | solubility at 18 h [2, 13]: ≥ 200 µM
